Measurements published in US6407136B1, “1,4-dithiin and 1,4-dithiepin-1,1,4,4, tetroxide derivatives useful as antagonists of the human galanin receptor” (Ortho-McNeil Pharmaceutical, Inc., priority 1999, dated 2002).
Where two headings read alike, the source gives them in different places.

Columns and labels:
[1] = target: T1, Rat Galanin-1 Receptor (Rattus norvegicus, UniProt Q62805); experiment: Rat Galanin-1 Receptor Mediated Inhibition of Acetylcholine Release from Rat Brain Cortical Slices (superfusion); conditions: for Acetycholine Secretion, Stimulated (% change) / Acetycholine Secretion, Stimulated: K+-evoked; for Acetycholine Secretion, Stimulated (% change) / Acetycholine Secretion, Basal (% change): percent in brackets, versus control
T1 sequence (Q62805 1-346): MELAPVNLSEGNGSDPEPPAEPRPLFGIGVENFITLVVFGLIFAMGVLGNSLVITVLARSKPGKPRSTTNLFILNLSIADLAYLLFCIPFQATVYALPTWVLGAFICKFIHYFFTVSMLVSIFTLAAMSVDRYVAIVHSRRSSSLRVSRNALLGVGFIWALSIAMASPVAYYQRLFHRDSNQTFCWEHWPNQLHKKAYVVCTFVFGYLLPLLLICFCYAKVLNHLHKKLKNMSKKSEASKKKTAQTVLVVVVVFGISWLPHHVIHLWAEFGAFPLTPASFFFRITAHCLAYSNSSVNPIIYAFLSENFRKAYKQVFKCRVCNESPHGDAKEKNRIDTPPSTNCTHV
Method: Rat brain cerebrocortical tissues were chopped into slices of 300×300×3,000 mm using a Mcllwain tissue chopper. […] After incubation, the slices were washed three times with ice-cold physiological solution and resuspended in 6 ml of cold solution. Equal aliquots of the tissue suspension were placed in each of 6 parallel superfusion chambers (Hugo Sachs Elektronik, March-Hugstetten, Germany). A circular piece of nylon mesh (pore size 250 um) was placed just below each chamber outlet in order to prevent the loss of tissue. The chambers were perfused against gravity with oxygenated Krebs-Ringer containing 1 mM physostigmine hemisulfate at a flow rate of 1 ml/min. […] The onset of superfusion was defined as time zero (t0). Starting at 30 min after t0, 10 min fractions of the effluent were collected.
Release of [^3H]acetylcholine was induced by superfusing tissues for 30 sec with 65 mM K^+-Krebs-Ringer solution (made by isomolar replacement of NaCl with KCl). Four potassium pulses were given respectively at 40 min (S1), 70 min (S2), 100 min (S3) and 130 min (S4) after t0. […] To permit construction of concentration-effect curves, concentrations of agents were increased 10 fold between each stimulus.
Following perfusion, the tissue was homogenized in 1 ml ethanol and aliquots of superfusates (0.4 ml) and tissue homogenates (0.04 ml) were added to 5 ml of Scintsafe PlusTM 50% (Fisher Scientific, Pittsburgh, Pa.) and radioactivity counted by liquid scintillation spectrometry. The total ^3H content in this procedure consisted mainly of [^3H]acetylcholine.
Tritium (^3H) efflux into the superfusate was calculated as the fraction of tritium content in the slices or synaptosomes at the onset of the respective collection period. For calculation of the stimulated tritium overflow, the estimated basal efflux (the average of the 10 min fractions immediately before and after each stimulation) was subtracted from the total tritium efflux during the 10 min fraction which began with the 30 sec K^+ pulse. This difference was then used to calculate the percent of K^+-evoked release of acetylcholine.
In order to quantify the in vitro effect of a drug on stimulated tritium outflow, the ratio of the fraction released by a given pulse, Sn, to that evoked by S1, was determined. Data presented below are expressed as the mean fractional tritium release ±S.E.M. Statistical differences between treatments were tested by the two-tailed Student's t test or the two factor ANOVA as appropriate. Individual differences in the dose-response curve was evaluated by the Newman-Keul multiple comparison.

[2] = target: T2, hGALR-1 contained in membranes from human Bowes melanoma cells (Homo sapiens, UniProt P47211); experiment: Human Galanin-1 Receptor Binding Assay (SPA, 125I human galanin); conditions: inhibition of 125I human galanin binding
T2 construct: hGALR-1 that is contained in membranes from human Bowes melanoma cells; endogenous in cells; host or cells: human Bowes melanoma cells (membranes)
T2 sequence (P47211 1-349): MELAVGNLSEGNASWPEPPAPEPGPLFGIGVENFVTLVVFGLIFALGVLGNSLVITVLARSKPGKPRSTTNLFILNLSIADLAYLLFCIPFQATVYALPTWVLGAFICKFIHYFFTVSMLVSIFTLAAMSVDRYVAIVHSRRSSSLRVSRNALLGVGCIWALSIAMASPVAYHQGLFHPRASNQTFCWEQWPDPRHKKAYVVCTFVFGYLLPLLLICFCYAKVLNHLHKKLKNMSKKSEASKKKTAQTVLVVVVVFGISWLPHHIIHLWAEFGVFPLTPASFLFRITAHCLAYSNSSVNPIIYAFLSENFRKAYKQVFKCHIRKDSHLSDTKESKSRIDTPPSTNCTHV
Method: Human Galanin-1 Receptor Binding Assay
This assay determines the concentration (IC50) of a test compound which prevents 50% of galanin from binding to the hGALR-1 that is contained in membranes from human Bowes melanoma cells bound to wheat germ agglutinin conjugated Scintillation Proximity Assay (SPA) beads. The IC50 value is obtained by measuring the effect of half log increment dilutions of the test compound in duplicate using a 96-well plate (eight-rows, 12-columns).
The SPA beads (500 mg) were dissolved in 12.5 mL of assay buffer composed of 20 mM DMSO-HEPES (pH 7.4), 0.1% bovine serum albumin, 2 mM MgCl2, 2 mM CaCl2, and protease inhibitors. Enough of this suspension for five plates (25 μL×5×96 wells=12000 μL) was dispensed into a 50 mL sterile Falcon tube. The amount of membranes required for five plates was then added (50 μg×5×96 wells), followed by 32.5 mL of 30% DMSO-HEPES buffer. The mixture was placed on a rotator and agitated for 0.5 hours and the non-specific binding sites on the beads were blocked by the addition of 5% [final] fetal bovine serum. Each well of the 96-well plate received 100 μL of this mixture.
To the control column (column 12) rows A and B was added 3.75 μL of a 300 μM solution of galantide in 30% DMSO-HEPES buffer, to rows C and D was added 3.75 μL of 30% DMSO-HEPES buffer and to rows E and F was added 3.75 μL of a 300 μM solution of galanin in 30% DMSO-HEPES buffer. In columns 1 through 11 were added solutions of the test compound in 30% DMSO-HEPES buffer starting at 30 μM and decreasing in concentration in half-log dilutions. A solution of radioactive ^125I human galanin (46.25 μL), prepared from 25 micro Curies of ^125I human galanin (2000 ci/mmol) and 500 μL of assay buffer, was added to each well. The plate was sealed with adhesive paper and incubated for 16 hr at room temperature before the quench-corrected bound radioactivity was measured in a Topcount® apparatus. For each dilution, the % inhibition of galanin binding was calculated as follows:
Total binding (T)=Mean counts/minute (cpm) in row C and D in column 12 Non-specific binding (NSB)=Mean cpm in row E and F in column 12 Total specific binding (TS)=T−NSB
net cpm in each well (N)=C−NSB
The IC50 values for each compound were calculated from the non-linear regression curve of the data using Prism® graphics software.

[3] = Table II, formula (II) compounds, read-out: hGAL IC50
[4] = 10 μM + GAL, mean fractional tritium release

Row | Compound | Acetycholine Secretion, Stimulated (% change) ([1]; 1 μM + GAL) [%] | Acetycholine Secretion, Basal (% change) ([1]; 1 μM + GAL) [%] | Acetycholine Secretion, Basal (% change) ([1]; 10 μM + GAL) [%] | IC50 [2, 3] [nM] | also measured
1 | O=S1(=O)C=C(c2ccc(I)cc2)S(=O)(=O)CCC1 [Cmpd 17] | −35.2 | −39.2 | −37 |  | Acetycholine Secretion, Stimulated (% change) ([1]; 10 μM + GAL): −22.3%
2 | O=S1(=O)C=C(c2ccc(Br)cc2)S(=O)(=O)CC1 [Cmpd 2] |  |  |  |  | IC50 ([2]; Table I, formula (I) compounds, read-out: HGAL IC50): 1000 nM
3 | O=S1(=O)C=C(c2ccc(Cl)cc2)S(=O)(=O)CCC1 [Cmpd 21] |  |  |  | 1900 | 
4 | O=S1(=O)C=C(c2cccc(F)c2)S(=O)(=O)CCC1 [Cmpd 16] | −23.9 | −38.9 | −37 | 1300 | Acetycholine Secretion, Stimulated ([1]; 1 μM + GAL, mean fractional tritium release): 6.31; Acetycholine Secretion, Stimulated [1, 4]: 8.27; Acetycholine Secretion, Basal [1, 4]: 2.28
5 | COc1cccc(C2=CS(=O)(=O)CCCS2(=O)=O)c1 [Cmpd 15] |  |  |  | 1100 | 
